Patent US20160199463A1, “HDAC2 DEFENDS VASCULAR ENDOTHELIUM FROM INJURY” (The Johns Hopkins University, priority 2014, published 2016)
pIC50: −log10 of the molar value. “Also recorded” adds a separate entry of the source. Where two headings read alike, the source gives them in different places. Numbered stars: 1 amine (or outer) side, 2 acyl side, 3 side chain; on linkers, the order of the positions; unused ones are H or OH. Bridge positions count the residues as written; N and C are the ends. Square brackets hold non-standard residues; d marks the D form. Peptide text beside a SMILES is read from it. I, II: the chains in the order shown. * marks the point of attachment. Actinocin(9to1) = Cc1c2oc3c(C)ccc(C(=O)[*:1])c3nc-2c(C(=O)[*:2])c(N)c1=O; NMeV = CN[C@H](C(=O)O)C(C)C; Cbz = O=C(OCc1ccccc1)*; Sar = CNCC(=O)O

Experiments:
[1] = test system: Arg2; assay: Arg2 protein expression in HAECs (Western blot); format: cell-based, human; conditions: for TSA (1 μmol/L) effect on Arg2 expression in pretreated cells: pretreatment with actinomycin D or cycloheximide (10 μg/mL); for OxLDL-induced increase in abundance of endothelial arginase: preincubation 8 h, MLN4924 1 μM or MG132 10 μM, then OxLDL 50 μg/mL 24 h
Description: (§1) After 48 hrs of HAEC cells transfection, cells were lysed in ice cold RIPA lysis buffer consisting of 20 mM Tris-HCl at pH 7.5, 150 mM NaCl, 1 mM EDTA, 1 mM EGTA, 1% NP40, 1% sodium deoxycholate, 1 mM Na3VO4, 2.5 mM sodium pyrophosphate, 1 mM 3-glycerophosphate, 1 μg/mL leupeptin, and a 1:1000 diluted protease inhibitor cocktail (Sigma). For immunoprecipitation studies, whole cell lysate lysates were centrifuged at 14,000×g and supernatants were precleared by incubation with Protein A/G-agarose beads for 2 h at 4° C. with rocking. Agarose beads were then pelleted by centrifugation at 1,000×g. FLAG-Arg2 in precleared lysates were immunoprecipitated by incubation overnight at 4° C. with rocking following addition of anti-FLAG antibody (10 μl). Immune complexes were eluted in 2×SDS sample buffer by boiling for 5 minutes before loading into SDS-PAGE. Western blotting analysis was performed by transferring the SDS gel onto a PVDF membrane and visualized using secondary antibodies conjugated to alkaline phosphatases.

[2] = test system: eNOS; assay: eNOS expression in HAECs (immunoblot); format: cell-based, human; conditions: 1 μmol/L, 18 hours
Description: as §1

[3] = test system: Arg2 mRNA; assay: Arg2 mRNA in HAECs (RT-PCR, real-time PCR); format: cell-based, human
Description: Total RNA was extracted from segments of mice aortas and HAEC using Trizol and PureLink (Invitrogen). RNA was then reverse transcribed with oligo dT primers to obtain cDNA and quantitative real time PCR (Applied Biosystems) was performed using SYBR Green Supermix mix (Applied Biosystems) whereas semiquantitative RTPCR was performed using conventional Biorad PCR machine and the following primer sets: Real Time PCR data are expressed as “fold change”, which is calculated as 2-ΔΔCt.

[4] = test system: arginase activity in HAECs; assay: Arginase activity assay (urea production) in HAEC lysates; format: cell-based, human; conditions: for OxLDL-induced increase in activity of endothelial arginase: preincubation 8 h, MLN4924 1 μM or MG132 10 μM, then OxLDL 50 μg/mL 24 h
Description: HAEC were lysed using RIPA buffer (50 mM of Tris.HCl, pH 7.5, 0.1 mM EDTA, 0.1% Triton X-100, and protease inhibitor), and centrifuged for 30 min at 14,000 g at 4° C. 50 μL (50-100 μg) of supernatant was added to 75 μl of 10 mM MnCl2 made in Tris-HCl (50 mM, pH 7.5) and heat activated by incubating at 55-60° C. for 10 min. 50 μL of L-Arginine that was prepared in 300 mM Tris-HCL, pH 9.7 were then added to the activated cell lysates to achieve final concentrations of 150 mM and incubated at 37° C. for 3 hrs with shaking. The reaction was stopped by adding 400 μL of an acid solution (H2SO4: H3PO4: H20=1:3:7). For colorimetric determination of urea, α-isonitrosopropiophenone (25 μL, 9% in ethanol) was added and further heated at 100° C. for 45 min. Samples were allowed to cool at room temperature in the dark for 10 min and urea concentration was determined by measuring absorbance at 550 nm using a spectrophotometer.

[5] = test system: HDAC2; assay: HDAC2 protein expression in HAECs (immunoblot); format: cell-based, human; conditions: for HDAC2 levels in OxLDL-exposed HAEC: pretreatment 8 h, MLN4924 1 μM or MG132 10 μM, then OxLDL 50 μg/mL 24 h
Description: as §1

[6] = test system: NEDD8; assay: Protein NEDDylation in HAECs (immunoblot, immunoprecipitation); format: cell-based, human; conditions: HAEC expressing HA-tagged-NEDD8; MLN4924 0, 0.1, 0.3 or 1 μM, dose-dependent
Description: FIG. 21A-FIG. 21H is a series of graphs and photographs of immunoblots showing inhibition of NEDDylation by MLN4924 improves OxLDL-mediated vascular endothelial dysfunction via downregulation of Arginase 2. Wire myography was used to measure vasorelaxation with acetylcholine (FIG. 21A, Ach) and sodium nitroprusside (FIG. 21B, SNP) in isolated mice aortas. Conditions included 24 h of OxLDL (50 μg/mL) or control medium preceded by 1 h with either vehicle (DMSO) or MLN4924 (1 μM). […] Note that native (and not transgene) HDAC2 protein levels are shown here. […] Note that “0 μgHA-NEDD8” denotes an empty vector (pcDNA3.1) control. *Indicates p b 0.05 vs control; **indicates p b 0.001; n=6 for vascular reactivity and arginase activity assays.
Densitometry analysis of data from three experiments is shown in top panel. […] Note that “0 μg HA-NEDD8” denotes an empty vector (pcDNA3.1) control. […] Western blots in this figure are representative of 3 independent experiments.

[7] = test system: aortic rings of wild-type mice; assay: Force tension (wire) myography, vascular relaxation of isolated wild-type mouse aortic rings; format: cell-based
Description: Mouse aorta was isolated and cleaned in ice-cold Krebs-Ringer-bicarbonate solution containing the following (in mM): 118.3 NaCl, 4.7 KCl, 1.6 CaCl2, 1.2 KH2 PO4, 25 NaHCO3, 1.2 MgSO4, and 11.1 dextrose. The aorta was immersed in a bath filled with constantly oxygenated Krebs buffer at 37° C. Equal size thoracic aortic rings (2 mm) were mounted using a microscope, ensuring no damage to the smooth muscle or endothelium. One end of the aortic rings was connected to a transducer, and the other to a micromanipulator. Aorta was passively stretched to an optimal resting tension using the micromanipulator, after which a dose of 60 mM KCl was administered, and repeated after a wash with Krebs buffer. After these washes, all vessels were allowed to equilibrate for 20-30 min in the presence of indomethacin (3 μM). Phenylephrine (1 μM) was administered to induce vasoconstriction. A dosedependent response (1 nM to 10 μM), with the muscarinic agonist, ACH or nitric oxide donor, SNP, was then performed as necessary. The responses were repeated in the presence of inhibitors. Relaxation responses were calculated as a percentage of tension following pre-constriction. Sigmoidal dose-response curves were fitted to data with the minimum constrained to 0. Two to four rings were isolated from each animal and the number of animals in each group (n) was 6.

[8] = test system: NO production in HAECs; assay: Nitric oxide production in HAECs (DAF-DA fluorescence, Siever's NO analyzer); format: cell-based, human; conditions: TSA 1 μmol/L with ABH (1 μmol/L)
Description: (§2) Nitric Oxide levels in HAEC were determined using DAF-DA as per manufacture instructions (Life Sciences). Briefly, cells were loaded with DAF-DA (5 μM) for 20 min and washed 3 times with PBS and incubated for another 30 min in phenol-free media. Fluorescence was determined using a Nikon TE-200 epifluorescence microscope. Images were captured with a Rolera EMC2 camera (Q-Imaging, BC, Canada) with Velocity software (PerkinElmer, Lexington, Mass.). NO production in the cell culture media was also determined by measuring Nitrite levels using a Siever's NO analyzer. NO radicals were measured in cell media collected after 24 hours of treatment using the Oxiselect assay (Cell Biolabs, San Diego, Calif.).

[9] = test system: calcium-insensitive eNOS in HEK 293 cells; assay: NO radicals in medium of HEK 293 cells expressing calcium-insensitive eNOS (DCFH-DiOxyQ assay); format: cell-based, human; conditions: TSA together with ABH
Description: as §2
Next, the functional consequences of HDAC inhibition on downstream endothelial cell signaling were evaluated. Because eNOS-derived NO plays a central role in endothelial function, eNOS activity was assessed by measuring NO production using 3 different assays. […] HEK 293 cells lack native eNOS expression, but do produce abundant Arg2. Cell medium from 293 cells transfected with a control plasmid (LacZ) was used as a control background signal that was subtracted from all the groups containing calcium-insensitive endothelial nitric oxide synthase.

[10] = test system: HDAC2; conditions: low-dose; cited from earlier work
[11] = test system: HDAC; conditions: cited from earlier work
[12] = test system: SIRT; conditions: cited from earlier work
[13] = MS275 2 μmol/L, CI994 1 μmol/L, MC1568 0.5 μmol/L, PC34051 100 nmol/L, MGCD0103 1 μmol/L

Structure (SMILES): O=C(CCCCCN1C(=O)c2cccc3cccc(c23)C1=O)NO [Scriptaid]
- Arg2 expression, broad-spectrum HDAC inhibitors ([1]; 1 μmol/L, 18 hours): upregulated
- eNOS expression [2]: negligible effect

Structure (SMILES): Cc1c2oc3c(C)ccc(C(=O)N[C@@H]4C(=O)N[C@H](C(C)C)C(=O)N5CCC[C@H]5C(=O)N(C)CC(=O)N(C)[C@@H](C(C)C)C(=O)O[C@@H]4C)c3nc-2c(C(=O)N[C@@H]2C(=O)N[C@H](C(C)C)C(=O)N3CCC[C@H]3C(=O)N(C)CC(=O)N(C)[C@@H](C(C)C)C(=O)O[C@@H]2C)c(N)c1=O [actinomycin D] (I: T[dV]P[Sar][NMeV] / II: T[dV]P[Sar][NMeV]; ester I:1-I:C, II:1-II:C; linker I:N-II:N via Actinocin(9to1))
- TSA (1 μmol/L) effect on Arg2 expression in pretreated cells [1]: failed to increase
- OxLDL-induced rise in Arg2 mRNA levels ([3]; with Actinomycin D): ablated

Structure (SMILES): CC(C)C[C@@H](C=O)NC(=O)[C@H](CC(C)C)NC(=O)[C@H](CC(C)C)NC(=O)OCc1ccccc1 [MG132] (Cbz-Leu-Leu-Leu-aldehyde)
- OxLDL-induced increase in activity of endothelial arginase [4]: abolished
- OxLDL-induced increase in abundance of endothelial arginase [1]: abolished
- decrease of HDAC2 levels by HA-NEDD8 expression ([5]; MG132 10 μM, 8 h): abolished
- HDAC2 levels in OxLDL-exposed HAEC [5]: rescued

Structure (SMILES): COc1ccc(Cn2ccc3ccc(C(=O)NO)cc32)cc1 [PCI-34051]
- endothelial Arg2 expression, class-specific HDAC inhibitors [1]: no substantial effects; also recorded: slight increase

Structure (SMILES): NS(=O)(=O)OC[C@@H]1C[C@@H](n2ccc3c(N[C@H]4CCc5ccccc54)ncnc32)C[C@@H]1O [MLN4924]
- quantity of NEDDylation conjugates [6]: attenuated
- endothelium-independent responses to SNP, dose-dependent vasorelaxation ([7]; MGCD0103, MLN4924 or both, FIG. 29B): no significant differences
- endothelial function (acetylcholine dose response) in OxLDL-exposed aortas ([7]; MLN4924 1 μM 1 h before OxLDL 50 μg/mL 24 h): Substantial rescue
- Ach response in WT aorta ([7]; MLN4924 1.0 μM pretreatment): did not cause any significant changes
- vascular endothelial dysfunction induced by MGCD0103 ([7]; MLN4924 1.0 μM together with MGCD0103): did not reverse
- endothelial-dependent vascular relaxation, compound alone ([7]; MLN4924 1 μM without OxLDL): negligible effect
- endothelial-independent vascular relaxation (sodium nitroprusside) ([7]; OxLDL 50 μg/mL 24 h, MLN4924 1 μM): unaffected
- arginase activity in the absence of OxLDL ([4]; MLN4924 1 μM): decreased
- OxLDL-induced increase in activity of endothelial arginase [4]: abolished
- OxLDL-induced increase in abundance of endothelial arginase [1]: abolished
- HDAC2 protein expression in the absence of OxLDL ([5]; MLN4924 0, 0.1, 0.3 or 1 μM): robust dose-dependent increase
- HDAC2 levels in OxLDL-exposed HAEC [5]: rescued

Structure (SMILES): Nc1ccccc1NC(=O)c1ccc(CNC(=O)OCc2cccnc2)cc1 [MS275, Entinostat]
- endothelial Arg2 expression, class-specific HDAC inhibitors [1, 13]: no substantial effects

Structure (SMILES): NC(CCCCB(O)O)C(=O)O (stereo not drawn) [ABH, amino-2-borono-6-hexanoic acid]
- TSA-induced decrease of NO production on coincubation with ABH [8]: failed to occur
- Emax acetylcholine-mediated vasorelaxation, TSA-treated rings pretreated with ABH ([7]; TSA 200 nmol/L plus ABH (1 mmol/L), n=6): 65.7±12.1%
- TSA effect on NO production in the presence of ABH [9]: failed to attenuate

Structure (SMILES): Cn1c(=O)c2[nH]cnc2n(C)c1=O [theophylline, 1,3-dimethylxanthine]
- HDAC2 activity and expression in alveolar macrophages [10]: increases

Structure (SMILES): CC(=O)Nc1ccc(C(=O)Nc2ccccc2N)cc1 [CI994, Tacedinaline]
- endothelial Arg2 expression, class-specific HDAC inhibitors [1, 13]: no substantial effects

Structure (SMILES): C[C@@H]1C[C@@H]([C@H](O)CC2CC(=O)NC(=O)C2)C(=O)[C@@H](C)C1 [cycloheximide]
- TSA (1 μmol/L) effect on Arg2 expression in pretreated cells [1]: failed to increase
- OxLDL-induced peak in Arg2 protein levels ([1]; with cycloheximide): ablated

Structure (SMILES): O=C(CCCCCCC(=O)Nc1ccccc1)NO [SAHA, Suberoylanilide Hydroxamic Acid]
- HDAC classes blocked [11]: 10 nM; block Class I and Class II HDACs
- eNOS expression [2]: negligible effect

Structure (SMILES): NC(=O)c1cccnc1 [Nicotinamide]
- HAEC arginase activity, short-term ([4]; 30 minutes, nicotinamide 5 mmol/L, TSA 1 μmol/L): activating effect
- pIC50 [12]: > 4.30
- Arg2 protein levels ([1]; nicotinamide 5 mmol/L): no effect
- Arg2 mRNA expression ([3]; nicotinamide 0.1 or 0.2 mmol/L, 18 hours): No changes
- Arg2 mRNA levels ([3]; nicotinamide (5 mmol/L) as printed): no effect
